The target of assay [1] is T1, MARK3 (Homo sapiens, UniProt P27448).
T1 construct: purchased University of Dundee
As to the kind of experiment: MARK 3 Assay (HTRF, Cdc25C biotinylated peptide substrate). The class given is biochemical. Particulars: 10 μM ATP, 10 nM recombinant MARK3 enzyme. Here is the method:
MARK3 activity was assayed in vitro using a Cdc25C biotinylated peptide substrate (Cell Signalling Technologies). The phosphopeptide product was quantitated using a Homogenous Time-Resolved Fluorescence (HTRF) assay system (Park et al., 1999, Anal. Biochem. 269:94-104). The reaction mixture contained 50 mM HEPES/Tris-HCl, pH 7.4; 10 mM NaCl, 5 mM MgCl2, 0.2 mM NaVO4, 5 mM β-glycerol phosphate, 0.1% Tween-20, 2 mM dithiothreitol, 0.1% BSA, 10 μM ATP, 1 μM peptide substrate, and 10 nM recombinant MARK3 enzyme (University of Dundee) in a final volume of 12 μL. The buffer additionally contained protease inhibitor cocktail (Roche EDTA-free, 1 tab per 50 ml). The kinase reaction was incubated for 2 hours at 25° C., and then terminated with 3 μl Stop/Detection Buffer (50 mM HEPES, pH 7.0, 16.6 mM EDTA, 0.5M KF, 0.1% Tween-20, 0.1% BSA, 2 μg/ml SLX^ent 665 (CISBIO), and 2 μg/mL Eu^3+ cryptate label antibody (CISBIO)). The reaction was allowed to equilibrate overnight at 0° C., and relative fluorescent units were read on an HTRF enabled plate reader (e.g. TECAN GENios Pro).
Inhibitor compounds were assayed in the reaction described above to determine compound IC50s. Aliquots of compound dissolved in DMSO were added to the reaction wells in a third-log dilution series covering a range of 1 nM to 10 μM. Relative phospho substrate formation, read as HTRF fluorescence units, was measured over the range of compound concentrations and a titration curve generated.

Assay [2] can be described thus: Mean Arterial Pressure in anesthetized dogs. The class given is in vivo. An excerpt: The compounds of Formula I disclosed herein are also useful as blood pressure lowering agents and thus useful for the treating hypertension. Arterial hypertension has been identified as a strong causal factor in cardiovascular disease. An embodiment of the invention encompasses a method for treating or preventing cardiovascular disease comprising administering to a patient in need thereof a compound of Formula I, either as a single agent or in combination with other standard of care agents. It is postulated that compounds of the invention lower blood pressure by interfering with binding of tau and other microtubule associated proteins (MAP) to microtubules. Inhibiting the depolymerization of tubulin is the proposed cause of vasorelaxation leading to blood pressure lowering. […] Example 4 disclosed herein lowered Mean Arterial Pressure by 25% when it was dosed at 5 mg/kg cumulatively over the course of 90 minutes in anesthetized dogs. Example 9 disclosed herein lowered Mean Arterial Pressure by 89% when it was dosed at 10 mg/kg cumulatively over the course of 90 minutes in anesthetized dogs.

Molecules are shown by their SMILES. pIC50: −log10 of the molar value.

T1 sequence (P27448 whole entry, species assumed): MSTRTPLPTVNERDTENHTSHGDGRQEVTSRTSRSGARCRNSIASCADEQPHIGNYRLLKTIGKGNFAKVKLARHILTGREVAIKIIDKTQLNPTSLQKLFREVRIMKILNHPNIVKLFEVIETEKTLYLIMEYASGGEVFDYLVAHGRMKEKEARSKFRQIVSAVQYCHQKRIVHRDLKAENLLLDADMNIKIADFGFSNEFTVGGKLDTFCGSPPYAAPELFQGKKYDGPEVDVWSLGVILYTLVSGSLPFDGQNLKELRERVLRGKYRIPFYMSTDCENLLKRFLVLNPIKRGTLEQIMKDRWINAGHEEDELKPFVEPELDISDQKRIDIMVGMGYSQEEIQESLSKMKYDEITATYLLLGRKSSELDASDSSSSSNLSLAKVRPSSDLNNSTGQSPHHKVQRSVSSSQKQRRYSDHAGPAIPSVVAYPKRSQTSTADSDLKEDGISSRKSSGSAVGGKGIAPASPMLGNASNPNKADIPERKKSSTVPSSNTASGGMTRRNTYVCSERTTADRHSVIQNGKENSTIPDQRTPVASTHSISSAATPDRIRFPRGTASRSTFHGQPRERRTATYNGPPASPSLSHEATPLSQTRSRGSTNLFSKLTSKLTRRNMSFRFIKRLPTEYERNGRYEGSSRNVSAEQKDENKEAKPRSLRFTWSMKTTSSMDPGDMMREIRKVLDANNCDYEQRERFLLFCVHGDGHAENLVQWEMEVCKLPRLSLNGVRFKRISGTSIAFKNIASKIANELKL

On to `Cc1sc(C(=O)N[C@@H]2CCCC[C@@H]2N)cc1-c1cnn2cc(-c3cnn(C)c3)cnc12` [reference compound], for which the pIC50 in assay [1] is 9.00.
Take `CCc1sc(C(=O)N[C@@H]2[C@@H](N)CCCC2(F)F)cc1-c1cnn2cc(C(F)(F)F)cnc12` [Example 6, N-[(1R,6S)-6-Amino-2,2-difluorocyclohexyl]-5-ethyl-4-[6-(trifluoromethyl)pyrazolo[1,5-a]pyrimindin-3-yl]thiophene-2-carboxamide]: the pIC50 in assay [1] was 7.14.
Regarding `CCc1sc(C(=O)N[C@@H]2[C@@H](N)CCCC2(F)F)cc1-c1cnn2cc(Cl)cnc12` [Example 4, N-[(1R,6S)-6-Amino-2,2-difluorocyclohexyl]-4-(6-chloropyrazolo[1,5-a]pyrimidin-3-yl)-5-ethylthiophene-2-carboxamide], the pIC50 in assay [1] is 7.57. For the same compound, in assay [2] (5 mg/kg cumulatively over the course of 90 minutes), the “lowered Mean Arterial Pressure” value was 25%.
As for `Cc1sc(C(=O)N[C@@H]2[C@H](N)CCCC2(F)F)cc1-c1cnn2cc(OC(F)F)cnc12` [Example 9, N-[(1R,6R)-6-Amino-2,2-difluorocyclohexyl]-4-[6-(difluoromethoxy)pyrazolo[1,5-a]pyrimidin-3-yl]-5-methylthiophene-2-carboxamide], in assay [1], the pIC50 was 8.52. Moreover, the “lowered Mean Arterial Pressure” value in assay [2] (10 mg/kg cumulatively over the course of 90 minutes) was found to be 89%.
With `Cc1sc(C(=O)N[C@@H]2[C@@H](N)CCCC2(F)F)cc1-c1cnn2cc(OC(F)F)cnc12` [Example 10, N-[(1R,6S)-6-amino-2,2-difluorocyclohexyl]-4-[6-(difluoromethoxy)pyrazolo[1,5-a]pyrimidin-3-yl]-5-methylthiophene-2-carboxamide], the pIC50 in assay [1] was 8.30.
Turning to `CCOc1cnc2c(-c3cc(C(=O)N[C@@H]4[C@H](N)CCCC4(F)F)sc3CC)cnn2c1` [Example 15, N-[(1R,6R)-6-amino-2,2-difluorocyclohexyl]-4-(6-ethoxypyrazolo[1,5-a]pyrimidin-3-yl)-5-ethylthiophene-2-carboxamide], in assay [1], the negative-log IC50 (pIC50) was 8.70.

The record behind these values is patent US8946237B2, “Pyrazolo[1,5-A]pyrimidines as mark inhibitors” (Merck Sharp & Dohme Corp., priority 2010, dated 2015).
